The source of these data is ChEMBL document CHEMBL3407429, “Multifunctional tacrine-trolox hybrids for the treatment of Alzheimer's disease with cholinergic, antioxidant, neuroprotective and hepatoprotective properties” (Eur J Med Chem, 2015).

Activity calls are given as the source filed them. The rule behind the calls is not given here.

For data set [1], the target named is Acetylcholinesterase (Homo sapiens, UniProt P22303).
Description: Inhibition of human erythrocyte AChE using acetylthiocholine iodide as substrate preincubated for 6 mins before substrate addition by Ellman's method
The target in data set [2] is Cholinesterase (Equus caballus, UniProt P81908).
Description: Inhibition of equine serum BuChE using S-butyrylthiocholine iodide as substrate preincubated for 6 mins before substrate addition by Ellman's method
The target in data set [3] is Cholinesterase (Homo sapiens, UniProt P06276).
Description: Inhibition of human serum BuChE using S-butyrylthiocholine iodide as substrate preincubated for 6 mins before substrate addition by Ellman's method
Data set [4] concerns the target Acetylcholinesterase (Electrophorus electricus, UniProt O42275).
Description: Inhibition of electric eel AChE using acetylthiocholine iodide as substrate preincubated for 6 mins before substrate addition by Ellman's method
In data set [5] the test system is Rattus norvegicus. Nature of the data set: Hepatotoxicity in Sprague-Dawley rat assessed as increase in aspartate aminotransferase activity in serum at 6 umol/100g body weight, ip measured up to 72 hrs. Format: toxicity, organism-based. Conditions: in vivo.
For data set [6], the system named is PC-12. Nature of the data set: Neuroprotective activity against H2O2-induced oxidative stress in rat PC12 cells assessed as inhibition of cell death preincubated at 3.125 to 6.25 uM for 2 hrs before H2O2 addition measured after 24 hrs by MTT assay. The format is functional, cell-based.
Data set [7] concerns Rattus norvegicus. Kind of data set: Hepatotoxicity in Sprague-Dawley rat at 6 umol/100g body weight, ip measured after 24 hrs by histomorphological study. Format: toxicity, organism-based. The settings on record: in vivo.
Data set [8] has as its system Rattus norvegicus. Kind of data set: Hepatotoxicity in Sprague-Dawley rat assessed as increase in alanine aminotransferase activity in serum at 6 umol/100g body weight, ip measured up to 72 hrs. Conditions: in vivo. The format is toxicity, organism-based.
Data set [9] in a line: Cytotoxicity against rat PC12 cells assessed as reduction in cell viability at 1.563 to 12.5 uM after 48 hrs by MTT assay. Format: cell-based. Conditions: pc-12, 48 h.
The target of data set [10] is Acetylcholinesterase (Electrophorus electricus) (UniProt O42275). Nature of the data set: Mixed-type inhibition of electric eel AChE using acetylthiocholine iodide as substrate by Lineweaver-Burk double reciprocal plot method.
A further data set can be described thus: in vitro. Conditions: PAMPA. For orientation: The PAMPA barrier holds no transporters, so it reflects passive diffusion.
The subject of data set [11] is PC-12. Kind of data set: Neuroprotective activity against H2O2-induced oxidative stress in rat PC12 cells assessed as cell viability preincubated at 12.5 to 6.25 uM for 2 hrs before H2O2 addition measured after 24 hrs by MTT assay. Format: functional, cell-based. For orientation: Formazan colour is commonly taken as a measure of viable cells.

Acetylcholinesterase (Homo sapiens, UniProt P22303), sequence (P22303 whole entry): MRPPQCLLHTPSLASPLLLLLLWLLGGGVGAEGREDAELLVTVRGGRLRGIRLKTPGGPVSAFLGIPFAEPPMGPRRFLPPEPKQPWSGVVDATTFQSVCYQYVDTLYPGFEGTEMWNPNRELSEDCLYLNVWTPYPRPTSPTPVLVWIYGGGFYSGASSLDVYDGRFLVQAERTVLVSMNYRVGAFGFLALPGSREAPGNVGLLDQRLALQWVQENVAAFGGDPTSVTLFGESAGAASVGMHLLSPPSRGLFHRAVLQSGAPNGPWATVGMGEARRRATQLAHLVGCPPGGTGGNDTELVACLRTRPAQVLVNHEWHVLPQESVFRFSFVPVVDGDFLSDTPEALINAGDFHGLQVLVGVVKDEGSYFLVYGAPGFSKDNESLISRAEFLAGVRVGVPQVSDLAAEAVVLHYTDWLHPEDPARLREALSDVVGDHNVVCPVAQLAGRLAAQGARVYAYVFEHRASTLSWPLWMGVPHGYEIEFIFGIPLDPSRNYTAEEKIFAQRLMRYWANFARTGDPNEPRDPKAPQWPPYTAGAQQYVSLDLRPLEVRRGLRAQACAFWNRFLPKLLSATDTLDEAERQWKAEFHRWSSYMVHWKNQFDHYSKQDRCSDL
Cholinesterase (Homo sapiens, UniProt P06276), sequence (P06276 whole entry): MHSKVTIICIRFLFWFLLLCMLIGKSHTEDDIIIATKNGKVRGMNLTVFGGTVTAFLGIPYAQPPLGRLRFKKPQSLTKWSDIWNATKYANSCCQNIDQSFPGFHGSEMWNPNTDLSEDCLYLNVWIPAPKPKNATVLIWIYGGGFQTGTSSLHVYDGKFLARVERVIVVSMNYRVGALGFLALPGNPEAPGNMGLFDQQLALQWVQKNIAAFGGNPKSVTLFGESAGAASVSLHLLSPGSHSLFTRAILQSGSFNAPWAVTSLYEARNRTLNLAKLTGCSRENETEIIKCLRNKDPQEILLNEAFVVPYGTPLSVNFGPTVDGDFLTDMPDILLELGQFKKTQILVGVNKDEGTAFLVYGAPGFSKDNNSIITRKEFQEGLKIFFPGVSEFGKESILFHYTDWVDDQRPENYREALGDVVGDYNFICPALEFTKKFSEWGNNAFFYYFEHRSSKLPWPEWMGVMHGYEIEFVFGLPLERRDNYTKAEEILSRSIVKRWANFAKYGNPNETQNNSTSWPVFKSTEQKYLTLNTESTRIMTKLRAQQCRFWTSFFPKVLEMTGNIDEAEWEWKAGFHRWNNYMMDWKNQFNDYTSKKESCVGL
Acetylcholinesterase (Electrophorus electricus, UniProt O42275), sequence (O42275 whole entry): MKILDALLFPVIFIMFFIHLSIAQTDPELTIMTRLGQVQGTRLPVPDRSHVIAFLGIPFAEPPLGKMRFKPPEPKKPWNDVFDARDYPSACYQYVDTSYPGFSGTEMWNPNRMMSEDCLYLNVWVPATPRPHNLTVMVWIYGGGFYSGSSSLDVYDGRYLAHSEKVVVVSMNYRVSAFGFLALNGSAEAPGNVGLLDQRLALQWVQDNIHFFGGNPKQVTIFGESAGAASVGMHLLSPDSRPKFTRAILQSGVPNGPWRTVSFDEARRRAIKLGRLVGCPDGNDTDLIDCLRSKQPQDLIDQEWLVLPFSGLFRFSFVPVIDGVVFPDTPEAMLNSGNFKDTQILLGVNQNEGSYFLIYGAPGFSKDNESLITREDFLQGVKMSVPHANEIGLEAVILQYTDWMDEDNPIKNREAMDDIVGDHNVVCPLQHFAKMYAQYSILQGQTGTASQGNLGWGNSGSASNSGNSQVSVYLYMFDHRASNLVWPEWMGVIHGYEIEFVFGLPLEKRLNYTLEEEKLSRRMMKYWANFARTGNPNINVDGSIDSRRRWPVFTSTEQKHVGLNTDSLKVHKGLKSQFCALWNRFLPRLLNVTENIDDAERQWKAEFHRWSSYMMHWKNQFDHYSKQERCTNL
Cholinesterase (Equus caballus, UniProt P81908), sequence (P81908 whole entry): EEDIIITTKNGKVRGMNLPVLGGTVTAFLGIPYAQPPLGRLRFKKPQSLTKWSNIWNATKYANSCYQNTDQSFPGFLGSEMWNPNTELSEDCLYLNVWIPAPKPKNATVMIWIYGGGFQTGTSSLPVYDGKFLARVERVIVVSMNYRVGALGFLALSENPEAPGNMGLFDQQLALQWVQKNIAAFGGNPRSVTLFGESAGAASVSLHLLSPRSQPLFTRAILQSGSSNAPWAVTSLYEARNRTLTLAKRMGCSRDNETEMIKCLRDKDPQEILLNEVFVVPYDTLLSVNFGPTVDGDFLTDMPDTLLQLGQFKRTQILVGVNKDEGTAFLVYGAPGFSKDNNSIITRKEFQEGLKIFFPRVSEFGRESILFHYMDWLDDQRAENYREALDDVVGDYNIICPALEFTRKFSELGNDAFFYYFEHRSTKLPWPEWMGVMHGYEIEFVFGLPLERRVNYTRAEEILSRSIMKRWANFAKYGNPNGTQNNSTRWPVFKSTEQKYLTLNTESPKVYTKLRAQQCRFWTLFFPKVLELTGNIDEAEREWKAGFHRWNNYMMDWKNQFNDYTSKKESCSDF
Acetylcholinesterase (Electrophorus electricus), sequence (O42275 24-633 limits assumed): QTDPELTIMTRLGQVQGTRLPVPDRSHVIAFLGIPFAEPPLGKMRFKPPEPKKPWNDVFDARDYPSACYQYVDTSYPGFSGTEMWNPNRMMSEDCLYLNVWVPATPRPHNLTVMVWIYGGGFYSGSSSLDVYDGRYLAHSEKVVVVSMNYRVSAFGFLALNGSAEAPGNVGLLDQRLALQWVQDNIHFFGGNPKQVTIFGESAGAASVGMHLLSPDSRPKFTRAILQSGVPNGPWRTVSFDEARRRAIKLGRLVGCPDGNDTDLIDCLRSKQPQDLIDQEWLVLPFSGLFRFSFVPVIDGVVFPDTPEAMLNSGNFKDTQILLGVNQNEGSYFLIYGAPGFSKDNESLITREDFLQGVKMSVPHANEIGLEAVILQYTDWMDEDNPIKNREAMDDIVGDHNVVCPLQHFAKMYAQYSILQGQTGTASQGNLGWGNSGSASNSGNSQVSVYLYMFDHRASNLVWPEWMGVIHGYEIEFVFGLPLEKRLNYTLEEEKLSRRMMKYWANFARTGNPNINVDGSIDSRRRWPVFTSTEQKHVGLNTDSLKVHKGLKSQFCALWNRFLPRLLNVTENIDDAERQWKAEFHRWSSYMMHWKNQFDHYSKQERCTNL
Description for in vitro: Permeability of the compound in PBS and EtOH by PAMPA method

For the molecule `Cc1c(C)c2c(c(C)c1O)CCC(C)(C(=O)NCCCCCCCNc1c3c(nc4ccccc14)CCCC3)O2` (configuration not stated), the concentration for half-maximal inhibition (IC50) (as a rule, the concentration that gives 50% inhibition) was determined as 46.9 nM. The molecule also displayed an IC50 against Acetylcholinesterase [1] of 144 nM. The concentration for half-maximal inhibition (IC50) at Cholinesterase [2] is 61.7 nM. In addition, the half-inhibitory concentration (IC50) on Cholinesterase [3] turned out to be 19.2 nM. On Acetylcholinesterase [4], this molecule registered an IC50 of 92.4 nM.
For the molecule `Cc1c(C)c2c(c(C)c1O)CCC(C)(C(=O)NCCCCCCNc1c3c(nc4ccccc14)CCCC3)O2` (configuration not stated), the IC50 worked out at 48.7 nM. The molecule further yielded an IC50 against Acetylcholinesterase [1] of 23.5 nM. Further, in the data set on Rattus norvegicus [5], the Activity entry is recorded as “Non-toxic”. In addition, half-maximal inhibition against Cholinesterase [2] (IC50) was put at 22.2 nM. The inhibition result in the data set on PC-12 [6] was “Active”. In the data set with Rattus norvegicus [7], the Activity result is reported as “Non-toxic”. Besides, in the data set with Rattus norvegicus [8], the Activity entry is “Non-toxic”. In addition, at Cholinesterase [3], half-maximal inhibition (IC50) required 20.5 nM. Also, the Activity result in [9] is reported as “Non-toxic”. The inhibition entry in data set [10] is “Active”. Moreover, the IC50 at Acetylcholinesterase [4] stood at 9.8 nM. In the data set “in vitro”, the apparent permeability (Papp) (as a rule, the rate of passage across a membrane or cell layer, normalised by area and donor concentration) came out at 8.87 ×10⁻⁶ cm/s. Further, the inhibition entry in the data set on PC-12 [11] was “inactive”.
In turn, `Cc1c(C)c2c(c(C)c1O)CCC(C)(C(=O)NCCCCNc1c3c(nc4ccccc14)CCCC3)O2` (configuration not stated) came in with an IC50 of 44.2 nM. The molecule also yielded a half-maximal inhibitory concentration (IC50) against Acetylcholinesterase [1] of 535 nM. For the same molecule, the IC50 against Cholinesterase [2] was 15.6 nM. On Cholinesterase [3], this molecule returned an IC50 of 5.2 nM. The molecule also returned an IC50 against Acetylcholinesterase [4] of 558 nM.
Consider `CCn1cc(C(=O)O)c(=O)c2cc(F)c(N3CCNC(C)C3)c(F)c21` (configuration not stated) [LOMEFLOXACIN], for which, in the data set “in vitro”, the apparent permeability (Papp) was 0.8 ×10⁻⁶ cm/s.
In turn, `C[C@]12CCC(=O)C=C1CC[C@@H]1[C@@H]2CC[C@@]2(C)[C@H]1CC[C@]2(O)C(=O)CO` [CORTODOXONE] displayed a Papp in “in vitro” of 2.5 ×10⁻⁶ cm/s. Against the preceding molecule, the Papp is about 3.1-fold higher.
For `Cc1c(C)c2c(c(C)c1O)CCC(C)(C(=O)NCCNc1c3c(nc4ccccc14)CCCC3)O2` (configuration not stated), 30.4 nM corresponded to half-maximal inhibition (IC50). The same molecule showed a half-maximal inhibitory concentration (IC50) at Acetylcholinesterase [1] of 284 nM. In addition, the IC50 against Cholinesterase [2] came to 41.3 nM. The molecule also had an IC50 against Cholinesterase [3] of 56.3 nM. This molecule also displayed a half-inhibitory concentration (IC50) on Acetylcholinesterase [4] of 150 nM.
The like results for `Cc1c(C)c2c(c(C)c1O)CCC(C)(C(=O)NCCCCCCCCCCNc1c3c(nc4ccccc14)CCCC3)O2` (configuration not stated) were, in that order, 43.2 nM, 453 nM, 263 nM, 110 nM and 387 nM.
The molecule `Cc1c(C)c2c(c(C)c1O)CCC(C)(C(=O)NCCCCCNc1c3c(nc4ccccc14)CCCC3)O2` (configuration not stated) registered a half-maximal inhibitory concentration (IC50) of 40.7 nM. Also, at Acetylcholinesterase [1], the midpoint of inhibition, the IC50, lay at 215 nM. The molecule further showed an IC50 against Cholinesterase [2] of 35.4 nM. The molecule further displayed an IC50 against Cholinesterase [3] of 10.2 nM. The molecule further registered an IC50 at Acetylcholinesterase [4] of 250 nM.
In turn, `CN1C(C(=O)Nc2ccccn2)=C(O)c2ccccc2S1(=O)=O` [PIROXICAM] registered a Papp in “in vitro” of 0.6 ×10⁻⁶ cm/s.
`Cc1c(C)c2c(c(C)c1O)CCC(C)(C(=O)O)O2` (configuration not stated) [TROLOX] returned an IC50 of 35.6 nM.
Molecule `Cc1c(C)c2c(c(C)c1O)CCC(C)(C(=O)NCCCCCCCCNc1c3c(nc4ccccc14)CCCC3)O2` (configuration not stated) displayed a 50% inhibitory concentration (IC50) of 47.3 nM. Moreover, the half-inhibitory concentration (IC50) at Acetylcholinesterase [1] was 226 nM. Moreover, the half-maximal inhibitory concentration (IC50) at Cholinesterase [2] was 151 nM. On Cholinesterase [3], 34.7 nM corresponded to half-maximal inhibition (IC50). The molecule further yielded a half-maximal inhibitory concentration (IC50) against Acetylcholinesterase [4] of 228 nM.
